Molecular target: human Edg-2 receptor (LPA1 receptor) (Homo sapiens, UniProt Q92633)
Assay: Edg-2 receptor inhibition by FLIPR calcium fluorescence measurement (LPA-mediated calcium liberation)
Format: cell-based
Conditions: CHO cells stably overexpressing human Edg-2 receptor; LPA 18:1 100 nM; fluo-4 fluorescence; triplicate; read-out: Inhibitory concentrations IC50 for inhibition of the Edg-2 receptor
Method: A) Determination of Edg-2 Receptor Inhibition by Fluorescence Imaging Plate Reader (FLIPR) Measurements
The inhibition of the Edg-2 receptor (LPA1 receptor) by the compounds of the invention was quantified by the inhibitory effect on the LPA-mediated calcium liberation in a cell-based calcium fluorescence assay by use of Chinese hamster ovarian (CHO) cells in which the human Edg-2 receptor was stably overexpressed (FIp-In system, Invitrogen). […] Changes in intracellular calcium were determined by fluorescence measurement with the calcium-sensitive dye fluo-4 (Invitrogen) in a fluorescence imaging plate reader (FLIPR, […]).
CHO cells stably overexpressing the human Edg-2 receptor were seeded (40.000 per well) in black clear-bottomed poly-D-lysine-coated 96 well plates (Becton Dickinson, Biocoat cellware) approximately 18-24 h prior to the experiments. Cells were grown in an incubator at 37° C., 5% carbon dioxide and 95% humidity in cell culture media based on F-12 glutamax media (Gibco, #31765) supplemented with 1% (vol/vol) penicilline/streptomycine (PAN, #P06-07100), 10% (vol/vol) fetal calf serum (FCS, PAA, #A15-151) and hygromycin B (Invitrogen, #10687-010) 300 mg/l (final concentrations).
Prior to the FLIPR experiment, cells were loaded with fluo-4 acetoxymethyl ester (fluo-4 AM, Invitrogen, #F14202) for 60 min in an incubator at 37° C., 5% carbon dioxide and 95% humidity in dye-loading buffer consisting of Hanks' Balanced Salt Solution (HBSS, Invitrogen, #14065049) supplemented with fluo-4 AM at 2 μM (all data given for final concentration), Pluronic® F-127 0.05% (vol/vol) (Invitrogen, #P-3000 MP), HEPES 20 mM (Gibco, #15630), probenecid 2.5 mM (Sigma, #P-8761) and bovine serum albumin 0.05% (BSA, Sigma, #A-6003), adjusted to pH 7.5 with sodium hydroxide. During cell loading, fluo-4 AM is cleaved by intracellular esterase resulting in trapping of the dye fluo-4 within the cells. Loading was terminated by washing of the cells in a cell washer (Tecan Power washer) three times with the buffer specified afore but without fluo-4 AM and BSA. This latter buffer was also used as the buffer in the subsequent cell fluorescence measurements.
The dye-loaded and washed cells were pre-incubated for approximately 5 min with various concentrations of the test compound added as a solution in DMSO (0.3% vol/vol maximum final concentration of DMSO), or with DMSO in the respective concentration only (positive control). Subsequent addition of LPA (18:1, 1-oleoyl-sn-glycerol 3-phosphate; 100 nM final concentration) leads to liberation of intracellular calcium from internal stores resulting in a large transient increase of the fluo-4 fluorescence signal which was monitored over approximately 3 min. The percent inhibition caused by the test compound was determined from the maximum fluorescence response after LPA addition to cells pre-incubated with the compound as compared to the maximum fluorescence response after LPA addition to cells pre-incubated with DMSO only. All fluorescence values were corrected for the baseline fluorescence values obtained with cells which were pre-incubated with DMSO only and were not treated with LPA (baseline control). All measurements were performed in triplicate. From the percent inhibitions the inhibitory concentration IC50 was determined.

Sequence of human Edg-2 receptor (LPA1 receptor) (Q92633 whole entry): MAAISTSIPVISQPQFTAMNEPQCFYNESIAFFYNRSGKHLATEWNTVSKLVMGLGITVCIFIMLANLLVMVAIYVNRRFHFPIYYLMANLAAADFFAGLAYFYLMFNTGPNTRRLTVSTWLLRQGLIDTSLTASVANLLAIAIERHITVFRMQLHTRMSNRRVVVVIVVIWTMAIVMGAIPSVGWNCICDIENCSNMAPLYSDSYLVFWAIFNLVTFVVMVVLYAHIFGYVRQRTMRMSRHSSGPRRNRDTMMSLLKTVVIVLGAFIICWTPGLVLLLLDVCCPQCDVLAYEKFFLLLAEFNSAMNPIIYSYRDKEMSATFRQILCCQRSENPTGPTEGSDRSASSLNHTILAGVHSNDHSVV

SMILES	IC50
C=CC1CN2CCC1CC2COc1cc(C(=O)NC2(C(=O)O)Cc3ccccc3C2)ccc1OC (stereo not shown) [Example 58]	1000 to 30000 nM
COc1ccc(C(=O)NC2(C(=O)O)Cc3ccccc3C2)cc1OCCCCC(C)C [Example 59]	1000 to 30000 nM
COc1ccc(CCCCOc2cc(C(=O)NC3(C(=O)O)Cc4ccccc4C3)ccc2OC)cc1 [Example 60]	1000 to 30000 nM
COc1ccc(C(=O)NC2(C(=O)O)Cc3ccccc3C2)cc1OCCCC1CCCCC1 [Example 61]	1000 to 30000 nM
COc1ccc(C(=O)NC2(C(=O)O)Cc3ccccc3C2)cc1OCCCc1ccc(Cl)cc1 [Example 62]	1000 to 30000 nM
COc1ccc(C(=O)NC2(C(=O)O)Cc3ccccc3C2)cc1OCCC1CCCN1C (stereo not shown) [Example 64]	1000 to 30000 nM
COc1ccc(C(=O)NC2(C(=O)O)Cc3ccccc3C2)cc1OCc1cc(C)ccc1C [Example 65]	1000 to 30000 nM
COc1ccc(C(=O)NC2(C(=O)O)Cc3ccccc3C2)cc1OCCC1CCN(Cc2ccccc2)CC1 [Example 66]	1000 to 30000 nM
CCOC(=O)N1CCN(CCOc2cc(C(=O)NC3(C(=O)O)Cc4ccccc4C3)ccc2OC)CC1 [Example 67]	1000 to 30000 nM
COc1ccc(C(=O)NC2(C(=O)O)Cc3ccccc3C2)cc1OCCCN1CCCC1=O [Example 68]	1000 to 30000 nM
COc1ccc(C(=O)NC2(C(=O)O)Cc3ccccc3C2)cc1OCc1nc2ccccc2n1C [Example 69]	1000 to 30000 nM
COc1ccc(C(=O)NC2(C(=O)O)Cc3ccccc3C2)cc1OCCc1nc(-c2ccccc2)oc1C [Example 70]	1000 to 30000 nM
CCn1cc(COc2cc(C(=O)NC3(C(=O)O)Cc4ccccc4C3)ccc2OC)cn1 [Example 71]	1000 to 30000 nM
COc1ccc(C(=O)NC2(C(=O)O)Cc3ccccc3C2)cc1OCc1csc2ccccc12 [Example 72]	1000 to 30000 nM
COc1ccc(C(=O)NC2(C(=O)O)Cc3ccccc3C2)cc1OCc1ccc(-n2ccnc2)cc1 [Example 73]	1000 to 30000 nM
COc1ccc(C(=O)NC2(C(=O)O)Cc3ccccc3C2)cc1OCc1cc(-c2csc(C)n2)on1 [Example 74]	1000 to 30000 nM
COc1ccc(C(=O)NC2(C(=O)O)Cc3ccccc3C2)cc1OCCSc1nccn1C [Example 75]	1000 to 30000 nM
COc1ccc(C(=O)NC2(C(=O)O)Cc3ccccc3C2)cc1OCc1ccc(N2CCCC2)nc1 [Example 76]	1000 to 30000 nM
COc1ccc(C(=O)NC2(C(=O)O)Cc3ccccc3C2)cc1OCc1ncc(C)c(NC(C)=O)c1C [Example 77]	1000 to 30000 nM
COc1ccc(C(=O)NC2(C(=O)O)Cc3ccccc3C2)cc1OCC1CCC(C(=O)O)C1 (stereo not shown) [Example 78]	1000 to 30000 nM
COc1ccc(C(=O)NC2(C(=O)O)Cc3ccccc3C2)cc1OCc1cn(-c2ccccc2)nn1 [Example 79]	1000 to 30000 nM
COc1ccc(C(=O)NC2(C(=O)O)Cc3ccccc3C2)cc1OCc1cc(C)n(C)n1 [Example 80]	1000 to 30000 nM
COc1ccc(C(=O)NC2(C(=O)O)Cc3ccccc3C2)cc1OCCC1=CC[C@H]2C[C@@H]1C2(C)C [Example 81]	< 100 nM

SMILES	IC50
COc1ccc(C(=O)NC2(C(=O)O)Cc3ccccc3C2)cc1OCC1CC1C (stereo not shown) [Example 82]	1000 to 30000 nM
CC[C@H](COc1cc(C(=O)NC2(C(=O)O)Cc3ccccc3C2)ccc1OC)N1Cc2ccccc2C1 [Example 83]	1000 to 30000 nM
COc1ccc(C(=O)NC2(C(=O)O)Cc3ccccc3C2)cc1OCCCCCC(=O)O [Example 84]	1000 to 30000 nM
COc1ccc(C(=O)NC2(C(=O)O)Cc3ccccc3C2)cc1OCCCN1CCCCC1 [Example 85]	1000 to 30000 nM
COc1ccc(C(=O)NC2(C(=O)O)Cc3ccccc3C2)cc1OCCC1CC1 [Example 86]	1000 to 30000 nM
COc1ccc(C(=O)NC2(C(=O)O)Cc3ccccc3C2)cc1OCC1C[C@H]2C=C[C@@H]1C2 (stereo partly shown) [Example 87]	1000 to 30000 nM
COc1ccc(C(=O)NC2(C(=O)O)Cc3ccccc3C2)cc1OCc1c(C)noc1C [Example 88]	1000 to 30000 nM
COc1ccc(C(=O)NC2(C(=O)O)Cc3ccccc3C2)cc1OCc1snnc1-c1ccccc1 [Example 89]	1000 to 30000 nM
COc1ccc(C(=O)NC2(C(=O)O)Cc3ccccc3C2)cc1OCC1CC(c2ccccn2)=NO1 (stereo not shown) [Example 90]	1000 to 30000 nM
COc1ccc(C(=O)NC2(C(=O)O)Cc3ccccc3C2)cc1OCCc1cccc(C#N)c1 [Example 94, 2-{3-[2-(3-Cyano-phenyl)-ethoxy]-4-methoxy-benzoylamino}-indane-2-carboxylic acid]	< 100 nM
COc1ccc(C(=O)NC2(C(=O)O)Cc3ccccc3C2)cc1OCCc1cccc(C(N)=O)c1 [Example 95, 2-{3-[2-(3-Carbamoyl-phenyl)-ethoxy]-4-methoxy-benzoylamino}-indane-2-carboxylic acid]	1000 to 30000 nM
COc1ccc(C(=O)NC2(C(=O)O)Cc3ccccc3C2)cc1OCCc1cccc(C(=O)O)c1 [Example 96, 2-{3-[2-(3-Carboxy-phenyl)-ethoxy]-4-methoxy-benzoylamino}-indane-2-carboxylic acid]	1000 to 30000 nM
COc1ccc(C(=O)NC2(C(=O)O)Cc3cscc3C2)cc1OCCc1cccc(C)c1 [Example 98, 5-[4-Methoxy-3-(2-m-tolyl-ethoxy)-benzoylamino]-5,6-dihydro-4H-cyclopenta[c]thiophene-5-carboxylic acid]	< 100 nM
COc1ccc(C(=O)NC2(C(=O)O)Cc3ccsc3C2)cc1OCCc1cccc(C)c1 (stereo not shown) [Example 99, 5-[4-Methoxy-3-(2-m-tolyl-ethoxy)-benzoylamino]-5,6-dihydro-4H-cyclopenta[b]thiophene-5-carboxylic acid]	< 100 nM
COc1ccc(C(=O)NC2(C(=O)O)Cc3cc(Cl)sc3C2)cc1OCCc1cccc(C)c1 (stereo not shown) [Example 100, 2-Chloro-5-[4-methoxy-3-(2-m-tolyl-ethoxy)-benzoylamino]-5,6-dihydro-4H-cyclopenta[b]thiophene-5-carboxylic acid]	< 100 nM
COc1ccc(C(=O)NC2(C(=O)O)Cc3cccnc3C2)cc1OCCc1cccc(C)c1 (stereo not shown) [Example 101, 6-[4-Methoxy-3-(2-m-tolyl-ethoxy)-benzoylamino]-6,7-dihydro-5H-[1]pyrindine-6-carboxylic acid]	1000 to 30000 nM
CC(=O)c1sc(C(=O)NC2(C(=O)O)Cc3ccccc3C2)cc1OCCc1cccc(C)c1 [Example 102, 2-{[5-Acetyl-4-(2-m-tolyl-ethoxy)-thiophene-2-carbonyl]-amino}-indane-2-carboxylic acid]	100 to 1000 nM
COc1cc([N+](=O)[O-])c(C(=O)NC2(C(=O)O)Cc3ccccc3C2)cc1OCCc1cccc(Cl)c1 [Example 103, 2-{5-[2-(3-Chloro-phenyl)-ethoxy]-4-methoxy-2-nitro-benzoylamino}-indane-2-carboxylic acid]	1000 to 30000 nM
COc1cc(Br)c(C(=O)NC2(C(=O)O)Cc3ccccc3C2)cc1OCCc1cccc(Cl)c1 [Example 104, 2-{2-Bromo-5-[2-(3-chloro-phenyl)-ethoxy]-4-methoxy-benzoylamino}-indane-2-carboxylic acid]	1000 to 30000 nM
COc1cc(Cl)c(C(=O)NC2(C(=O)O)Cc3ccccc3C2)cc1OCCc1cccc(Cl)c1 [Example 105, 2-{2-Chloro-5-[2-(3-chloro-phenyl)-ethoxy]-4-methoxy-benzoylamino}-indane-2-carboxylic acid]	100 to 1000 nM
COc1c(F)cc(C(=O)NC2(C(=O)O)Cc3ccccc3C2)cc1OCCc1cccc(C)c1 [Example 106, 2-[3-Fluoro-4-methoxy-5-(2-m-tolyl-ethoxy)-benzoylamino]-indane-2-carboxylic acid]	< 100 nM
COc1c(OCCc2cccc(C)c2)cc(C(=O)NC2(C(=O)O)Cc3ccccc3C2)cc1[N+](=O)[O-] [Example 107, 2-[4-Methoxy-3-nitro-5-(2-m-tolyl-ethoxy)-benzoylamino]-indane-2-carboxylic acid]	1000 to 30000 nM
COc1ccc(C(=O)N(C)C2(C(=O)O)Cc3ccccc3C2)cc1OCCc1cccc(C)c1 [Example 108, 2-{[4-Methoxy-3-(2-m-tolyl-ethoxy)-benzoyl]-methyl-amino}-indane-2-carboxylic acid]	100 to 1000 nM
